Measurements from patent US12521439B2, “Methods and materials for modulating Nrf2 pathway” (The General Hospital Corporation, priority 2019, dated 2026).

Biological target: T1, bovine catalase (Bos taurus, UniProt P00432)
T1 construct: purchased Sigma-Aldrich
T1 sequence (P00432 1-527): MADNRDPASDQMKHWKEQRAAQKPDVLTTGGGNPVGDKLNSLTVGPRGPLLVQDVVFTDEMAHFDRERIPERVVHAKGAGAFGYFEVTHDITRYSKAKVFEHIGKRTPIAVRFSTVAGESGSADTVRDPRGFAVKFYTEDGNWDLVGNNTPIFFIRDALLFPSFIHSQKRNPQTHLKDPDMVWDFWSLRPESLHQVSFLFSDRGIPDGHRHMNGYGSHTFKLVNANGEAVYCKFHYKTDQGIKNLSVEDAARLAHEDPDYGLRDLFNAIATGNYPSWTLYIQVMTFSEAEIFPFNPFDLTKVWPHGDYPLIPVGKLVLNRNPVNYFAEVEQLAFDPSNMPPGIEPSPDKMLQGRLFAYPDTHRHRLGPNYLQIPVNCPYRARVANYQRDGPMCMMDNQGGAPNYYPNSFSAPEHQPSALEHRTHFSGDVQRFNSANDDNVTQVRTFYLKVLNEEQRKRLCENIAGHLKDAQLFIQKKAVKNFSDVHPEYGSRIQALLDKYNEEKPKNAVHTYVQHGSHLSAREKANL
Assay: Differential alkylation mass spectrometry, catalase
Type: binding
Procedure: Differential Alkylation for OBT Binding Characterization: 10 μg of bovine catalase (Sigma-Aldrich) were suspended in 100 μl of 50 mM HEPES (pH 8.5)/0.5% SDS and OBT, iodoacetamide (IAA), or N-ethylmaleimide (NEM) was added to a final concentration of 5 mM and the mixtures were incubated for 30 min at RT in the dark before adding IAA to all three reactions to a final concentration of 10 mM in the sample treated with IAA in the first alkylation step, and of 5 mM in the other two samples. Upon incubation at RT for 30 min in the dark dithiothreitol (DTT) was added to all reaction to a final concentration of 20 mM and the reactions were first incubated at RT in the dark for 15 min and then at 56° C. for 30 min. Then, NEM was added to all reactions to a final concentration of 100 mM followed by incubation at RT in the dark for 30 min. The experiments were done in triplicate. Samples were analyzed by mass spectrometry as described below.
Quantitative Proteomics: Cell pellets were lysed in a buffer of 75 mM NaCl, 50 mM HEPES pH 8.5, 10 mM sodium pyrophosphate, 10 mM sodium fluoride, 10 mM β-glycerophosphate, 10 mM sodium orthovanadate, 10 mM PMSF, Roche complete mini EDTA free protease inhibitors (1 tablet per 20 ml), and 3% SDS. Lysis was achieved by passing the suspension through a 21-gauge needle 20 times. Proteins were prepared for proteomics analysis as described previously. […] Twelve fractions were analyzed by multiplexed quantitative proteomics performed on an Orbitrap Fusion mass spectrometer (Thermo Scientifc) using a Simultaneous Precursor Selection (SPS) based MS3 method. […] For the cell line samples only MS3 with an average signal-to-noise value of larger than 40 per reporter ion as well as with an isolation specificity of larger than 0.75 were considered for quantification. […] A two-step normalization of the protein TMT-intensities was performed by first normalizing the protein intensities over all acquired TMT channels for each protein based on the median average protein intensity calculated for all proteins. […]

[1] = 2-fold excess of DTT over alkylating reagents

COC1=CC(=O)C(O)=C/C1=C/C=C/c1ccccc1 [OBT, (Z)-2-hydroxy-5-methoxy-4-((E)-3-phenylallylidene)cyclohexa-2,5-dien-1-one]
binding to cysteine residues of bovine catalase (5 mM OBT, differential alkylation): binds to all detected peptides with cysteine residues
binding type at Cys-232 and Cys-460 [1]: tight or irreversible binding
binding type at Cys-377 [1]: reversible binding
